Among the test systems are DMS 114 small cell lung; DMS 273 small cell lung; HOP-18 NSCLC; KM20L2 colon; LXFL 529 NSCLC; XF 498 CNS; MDA-N; P388 leukemia; P388/ADR leukemia; SN12K1 renal.
Holding throughout (experiment): NCI tumour cell line growth inhibition, 48 h

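Method: 48-hour compound exposure of cells in 96-well plates, five concentrations, linear interpolation of endpoints. At the GI50, growth is halved. TGI: total growth inhibition.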

`CC(C)N1CC2CC(CN(C(=O)c3ccc(Cl)cc3)C2)C1`: the TGI with DMS 114 small cell lung, in the experiment with DMS 273 small cell lung, with HOP-18 NSCLC, in the experiment with KM20L2 colon, in the experiment on LXFL 529 NSCLC and in the experiment on XF 498 CNS was over 100 µM throughout.

Consider `OC1OCC(COc2cc(Cl)c(Cl)cc2Cl)OC1O` (stereo not drawn), for which the TGI was 88.3 µM in the experiment with DMS 114 small cell lung; over 100 µM in the experiment with DMS 273 small cell lung; 90.8 µM in the experiment with HOP-18 NSCLC; over 100 µM in the experiment on KM20L2 colon; over 100 µM in the experiment on LXFL 529 NSCLC.

In the experiment with MDA-N, `C=C1C(=O)O[C@@H]2/C=C(/C)[C@@H](OC(C)=O)C[C@@H](O)/C(C)=C\[C@@H](OC(=O)[C@]3(C)O[C@@H]3C)[C@@H]12` yielded a TGI of 30.1 µM.

In the experiment on MDA-N, `Cc1cc2nc3c(C#N)c(C)c(CCCl)c(Cl)n3c2cc1C` came in with a TGI of 6.12 µM.

Turning to `COc1cc2c(cc1OC)C(Cl)C(c1ccc(Br)cc1)=C2Cl` (stereo not drawn), the TGI in the experiment on DMS 114 small cell lung was 23.3 µM; with DMS 273 small cell lung it was 31.6 µM; with HOP-18 NSCLC, 56.4 µM; in the experiment on KM20L2 colon, 41.3 µM; with MDA-N, 13.6 µM; with P388 leukemia it was over 100 µM. The figures for the TGI in the experiment on P388/ADR leukemia and with SN12K1 renal were over 100 µM and 29.4 µM, respectively.

For `CC(=O)OC1CC2(C)C(=CC1C1SCCS1)CCC1C2CCC2(C)C(OC(C)=O)CCC12` (stereo not drawn), the TGI in the experiment with MDA-N was over 100 µM.

`[N-]=[N+]=C(C(=O)CN1CCCC1=O)S(=O)(=O)c1ccccc1` registered a TGI in the experiment on MDA-N of over 100 µM.

For `O=C1c2ccccc2C(=O)N1CC#CCO`, the TGI in the experiment with DMS 273 small cell lung, with LXFL 529 NSCLC and in the experiment with XF 498 CNS was over 100 µM each time.

In the case of `O=C(CC12C3C4C1C1C2C3C41CC(=O)NO)NO` (stereo not drawn), the TGI in the experiment with DMS 114 small cell lung is 60.6 µM; in the experiment with DMS 273 small cell lung it was over 100 µM; in the experiment on KM20L2 colon, over 100 µM; in the experiment on LXFL 529 NSCLC, over 100 µM; in the experiment on XF 498 CNS, over 100 µM.

For `CC1(C)OCC2OC(n3cnc4c(N)nc(Cl)nc43)C(OS(C)(=O)=O)C2O1` (stereo not drawn), in the experiment on MDA-N, the TGI was over 100 µM.

Regarding `CCC(=O)OCOc1ccc(/C=C2\CCC(CN(C)C)C2=O)cc1` (stereo not drawn), the TGI in the experiment with DMS 114 small cell lung amounted to 56.4 µM; in the experiment on DMS 273 small cell lung, 15.2 µM; with HOP-18 NSCLC it was 28.8 µM; with KM20L2 colon, 32.6 µM; in the experiment on LXFL 529 NSCLC it was 9.27 µM; with MDA-N, 16.5 µM. The same molecule came in with a TGI in the experiment with XF 498 CNS of 4.15 µM.

Turning to `CSc1ccc(N2C(=O)C3c4[nH]c5ccccc5c4C4CCC(C(C)(C)C)CC4C3C2=O)cc1` (stereo not drawn), the TGI was 63.5 µM with DMS 114 small cell lung; 25.3 µM in the experiment on DMS 273 small cell lung; 53.5 µM with HOP-18 NSCLC; over 100 µM in the experiment with KM20L2 colon; 47.5 µM in the experiment on LXFL 529 NSCLC; over 100 µM in the experiment with XF 498 CNS.

In turn, `CC1=C(CCC(C)CO)O[C@H]2C[C@H]3[C@@H]4CC[C@H]5C[C@@H](O)CC[C@]5(C)[C@H]4CC(=O)[C@]3(C)[C@@H]12` (stereo partly drawn) showed a TGI with MDA-N of 45.4 µM.

Turning to `COC(=O)C1=C(C)NC(C)=C(C(=O)OC)C1c1cccc(/[N+]([O-])=C/c2ccccc2)c1`, in the experiment on MDA-N, the TGI is 31.6 µM.

In the case of `O=C1CCC2(O)c3ccccc3C2Cc2ccccc21` (stereo not drawn), the TGI with DMS 114 small cell lung, with DMS 273 small cell lung, in the experiment on HOP-18 NSCLC, in the experiment with KM20L2 colon and in the experiment on XF 498 CNS was over 100 µM in each case.

Take `COc1ccc(C(C2=C(O)CC(C)OC2=O)C2=C(O)CC(C)OC2=O)cc1` (stereo not drawn): the TGI in the experiment on DMS 114 small cell lung, with DMS 273 small cell lung, in the experiment with KM20L2 colon and in the experiment with LXFL 529 NSCLC was over 100 µM throughout.

In the experiment on MDA-N, `Cc1ccc2ccccc2c1CSc1nc(N)nc2c1ncn2CC(C)C` showed a TGI of over 100 µM.

As for `COc1ccc(N=NC2=C(O)CCC2=O)cc1`, the TGI in the experiment on DMS 114 small cell lung, with DMS 273 small cell lung and in the experiment with HOP-18 NSCLC was over 100 µM throughout.

With `CC1(C)CC(=O)C(CC2C(=O)CCCC2=O)C(=O)C1`, the TGI in the experiment on DMS 114 small cell lung, with DMS 273 small cell lung, with HOP-18 NSCLC, in the experiment with KM20L2 colon, in the experiment with LXFL 529 NSCLC and in the experiment with XF 498 CNS was over 100 µM each time.

For the molecule `O=[N+]([O-])c1ccc2c(c1)C(N1CCN(CCO)CC1)Cc1ccc(F)cc1S2` (stereo not drawn), in the experiment with MDA-N, the TGI is 24.1 µM.

For the molecule `CCO/C=C\C12CCCC1NC(c1ccccc1)(c1ccccc1)O2` (stereo not drawn), the TGI was 79.5 µM with DMS 114 small cell lung, over 100 µM in the experiment on DMS 273 small cell lung, 57.9 µM in the experiment on KM20L2 colon and 74.5 µM in the experiment on LXFL 529 NSCLC.

Regarding `CCC(O)CCCCCCCCCCCCCCC(=O)O` (stereo not drawn), the TGI in the experiment with DMS 114 small cell lung, with DMS 273 small cell lung, in the experiment with HOP-18 NSCLC, in the experiment with LXFL 529 NSCLC and with XF 498 CNS was over 100 µM in each case.

The molecule `CC12CCC(C1)C(C)(C)C2OC(=O)c1ccccc1N` (stereo not drawn) displayed a TGI with MDA-N of 29.7 µM.

Turning to `O=C(Nc1ccc(Br)cc1)C(=O)C(C(=O)c1ccc(Cl)c(Cl)c1)C1OC(=O)c2ccccc21` (stereo not drawn), the TGI in the experiment on DMS 114 small cell lung was 28.6 µM; in the experiment with DMS 273 small cell lung, 60 µM; in the experiment with HOP-18 NSCLC it was 77 µM; with KM20L2 colon it was over 100 µM; in the experiment with LXFL 529 NSCLC, 23.2 µM; in the experiment with XF 498 CNS, 96.2 µM.

On to `COc1cc(/C=C2\[C@@H]3NC(Cc4c(OC)c(C)c(OC)c(OC)c43)C(=O)N2Cc2ccccc2)c(OC)c(C)c1OC`, for which the TGI was over 100 µM with DMS 114 small cell lung; over 100 µM in the experiment on DMS 273 small cell lung; over 100 µM in the experiment on HOP-18 NSCLC; 96.3 µM in the experiment on KM20L2 colon; over 100 µM in the experiment on LXFL 529 NSCLC.

As for `O=C(NC1CCC[C@H]1OC(=O)c1ccccc1)c1ccccc1` (stereo partly drawn), the TGI with DMS 273 small cell lung and in the experiment with XF 498 CNS was over 100 µM throughout.

Take `O=C1C=CC2C3C(=O)N(c4ccccc4)C(=O)C3C1N2Cc1ccccc1` (stereo not drawn): in the experiment on MDA-N, the GI50 was 3.14 µM and the TGI is 10.9 µM.

In the experiment on MDA-N, `Oc1c(C(Nc2ccccn2)c2ccccc2)ccc2cccnc12` (stereo not drawn) gave a TGI of over 100 µM.

Turning to `Cc1cc(-c2ccccc2)nc(Nc2cc3ccccc3[nH]2)n1`, the TGI in the experiment on DMS 114 small cell lung, in the experiment on KM20L2 colon, in the experiment with LXFL 529 NSCLC and with XF 498 CNS was over 100 µM throughout.

As to `Cc1cc(N(CCC#N)S(=O)(=O)c2ccccc2)ccc1C=Nc1ccc(C(=O)O)cc1`, the TGI is 10.1 µM in the experiment with DMS 114 small cell lung; 17.5 µM in the experiment with DMS 273 small cell lung; 16.6 µM with HOP-18 NSCLC; 28.6 µM with KM20L2 colon; 3.52 µM in the experiment with LXFL 529 NSCLC; over 100 µM in the experiment on MDA-N. The TGI in the experiment on XF 498 CNS came to 22.5 µM.

In the experiment with MDA-N, `Nc1nc2cc(Cl)ccc2n1N` registered a TGI of over 100 µM.

With `NC(=O)NNC/C(Cl)=C(\Cl)C(=O)O`, the TGI in the experiment on DMS 114 small cell lung, in the experiment on DMS 273 small cell lung, with HOP-18 NSCLC, in the experiment on KM20L2 colon, with LXFL 529 NSCLC and in the experiment with XF 498 CNS was over 100 µM in each case.

Consider `OC(c1cc(C(F)(F)F)nc2c(Cl)cc(Cl)cc12)C1CCCCN1` (stereo not drawn), for which the TGI with MDA-N was over 100 µM.

Take `CCCCCCCCCC1CC(=O)OC2=C1C(=O)CCC2` (stereo not drawn): the TGI in the experiment on DMS 114 small cell lung, with DMS 273 small cell lung, in the experiment on HOP-18 NSCLC, in the experiment with KM20L2 colon, in the experiment on LXFL 529 NSCLC and in the experiment with XF 498 CNS was over 100 µM throughout.

`O=C1OC(OC/C(Br)=C(\Br)COC2OC(=O)C(Cl)=C2Cl)C(Cl)=C1Cl` (stereo not drawn) returned a TGI with MDA-N of 14.3 µM.

`CC(=O)C(CN1C(=O)c2ccccc2C1=O)C(C)=O` showed a TGI with MDA-N of over 100 µM.

Turning to `C/C(=N\N=C(N)N)C(CN1CCOCC1)C(c1ccccc1)c1c(O)c2ccccc2oc1=O` (stereo not drawn), the TGI in the experiment on DMS 114 small cell lung, in the experiment with DMS 273 small cell lung, with HOP-18 NSCLC, in the experiment with KM20L2 colon, in the experiment with LXFL 529 NSCLC and with XF 498 CNS was over 100 µM throughout.

`CCOP(=O)(OCC)/C(=C/n1c(=S)[nH]c2ccccc21)C(=O)OC` had a TGI with MDA-N of over 100 µM.

With `C=CC1=C(C)C(/C=c2\[nH]/c(=C/c3[nH]c(CC4NC(=O)C(C)/C4=C\C)c(C)c3CCC(=O)O)c(CC(=O)O)c2C)=NC1=O` (stereo not drawn), the TGI with DMS 114 small cell lung, in the experiment with HOP-18 NSCLC, in the experiment with KM20L2 colon, in the experiment with LXFL 529 NSCLC and with XF 498 CNS was over 100 µM throughout.

For the molecule `COc1cc2[nH]c3c(c2cc1OC)CCN[C@@]31CC[C@@]2(CC3c4c(cc(OC)c(O)c42)CCN3C)C[C@@H]1OC` (stereo partly drawn), the TGI was 37.2 µM in the experiment on DMS 114 small cell lung; over 100 µM with DMS 273 small cell lung; over 81.7 µM with HOP-18 NSCLC; 86.3 µM with KM20L2 colon; over 100 µM in the experiment with LXFL 529 NSCLC; 35.9 µM in the experiment on MDA-N. The TGI in the experiment with XF 498 CNS is 32.4 µM.

Consider `CC1C(c2ccccc2)N(C)C(c2ccccc2)C(C)C1(O)c1ccccc1` (stereo not drawn), for which the TGI with DMS 114 small cell lung, in the experiment on DMS 273 small cell lung, with KM20L2 colon and in the experiment with LXFL 529 NSCLC was over 100 µM in each case.

(Values after PubChem BioAssay (NCI).)
